Measurements from US20250263424A1, “KRAS INHIBITORS” (Bristol-Myers Squibb Company, priority 2022, published 2025).

The molecules below were run against Recombinant GMPPNP-loaded KRAS G12C (KRAS-G12C(ON), active form) (Homo sapiens, UniProt P01116, G12C) (assay: KRAS G12C RAF Disruption Assay (HTRF)). Settings: GMPPNP-loaded KRAS G12C 5 nM, GST-RAF1 RBD 9 nM, values given in μM, read-out: KRASG12C RAF Disruption Assay (IC50).
Format: biochemical
Procedure: This is a functional assay that measures activity of compounds against […]., the active form of KRAS G12C. Recombinant GMPPNP-loaded KRAS G12C (5 nM) was treated with compound at room temperature for 20 minutes in assay buffer (50 mM Tris pH 7.5, 100 mM NaCl, 1 mM MgCl2, 1 mM DTT, 100 μg/ml BSA). Recombinant GST-RAF1 RBD (9 nM) was added, and the reaction mixture was incubated for 20 minutes. SA-Tb (0.25 nM) was added, and the reaction mixture was incubated for 3 hours. HTRF signal was measured (PerkinElmer Envision), the signal ratio (λem 520/λem 495) was calculated, and IC50 values were calculated from the dose-response curve.

| Molecule | IC50 [µM] |
| --- | --- |
| Cc1cc(N)nc(-c2c(Cl)cc3c(N4CC5CCC(C4)N5C(=O)/C(F)=C/c4ccccn4)nc(OC[C@]45CCCN4C[C@H](F)C5)nc3c2F)c1C(F)(F)F (single isomer, unassigned) [Example 5] | 2.7 |
| Cc1cc(N)nc(-c2c(Cl)cc3c(N4CC5CCC(C4)N5C(=O)/C(F)=C/c4nccs4)nc(OCC4(CN5CCCCC5)CC4)nc3c2F)c1C(F)(F)F [Example 11, (Z)-1-((1R,5S)-3-((7M)-7-(6-amino-4-methyl-3-(trifluoromethyl)pyridin-2-yl)-6-chloro-8-fluoro-2-((1-(piperidin-1-ylmethyl)cyclopropyl)methoxy)quinazolin-4-yl)-3,8-diazabicyclo[3.2.1]octan-8-yl)-2-fluoro-3-(thiazol-2-yl)prop-2-en-1-one] | 5.3 |
| Cc1cc(N)nc(-c2c(Cl)cc3c(N4CC5CN(C(=O)/C(F)=C/c6nccs6)C5C4)nc(OC[C@]45CCCN4C[C@H](F)C5)nc3c2F)c1C(F)(F)F (single isomer, unassigned) [Example 15, Isomer 1] | 93.8 |
| Cc1cc(N)nc(-c2c(Cl)cc3c(N4C[C@H](C)N(C(=O)/C(F)=C/c5nccs5)C[C@H]4C)nc(OCC45CCCN4CC(F)C5)nc3c2F)c1C(F)(F)F (stereo partly drawn) [Example 19, (Z)-1-((2S,5R)-4-((7M)-7-(6-amino-4-methyl-3-(trifluoromethyl)pyridin-2-yl)-6-chloro-8-fluoro-2-((2-fluorotetrahydro-1H-pyrrolizin-7a(5H)-yl)methoxy)quinazolin-4-yl)-2,5-dimethylpiperazin-1-yl)-2-fluoro-3-(thiazol-2-yl)prop-2-en-1-one] | 3.2 |
| C[C@H]1CN(C(=O)/C(F)=C/c2nccs2)CCN1c1nc(OC[C@@H]2CCCN2C)nc2c(F)c(-c3cccc4cccc(Cl)c34)c(Cl)cc12 [Example 1, (Z)-1-((3S)-4-(6-chloro-7-(8-chloronaphthalen-1-yl)-8-fluoro-2-(((S)-1-methylpyrrolidin-2-yl)methoxy)quinazolin-4-yl)-3-methylpiperazin-1-yl)-2-fluoro-3-(thiazol-2-yl)prop-2-en-1-one] | 49 |
| C[C@H]1CN(C(=O)/C(F)=C/c2ncccn2)CCN1c1nc(OC[C@@H]2CCCN2C)nc2c(F)c(-c3cccc4cccc(Cl)c34)c(Cl)cc12 [Example 2, (Z)-1-((3S)-4-(6-chloro-7-(8-chloronaphthalen-1-yl)-8-fluoro-2-(((S)-1-methylpyrrolidin-2-yl)methoxy)quinazolin-4-yl)-3-methylpiperazin-1-yl)-2-fluoro-3-(pyrimidin-2-yl)prop-2-en-1-one] | 61.3 |
| Cc1cc(N)nc(-c2c(Cl)cc3c(N4C[C@H]5CC[C@@H]4[C@@H]5NC(=O)/C(F)=C/c4nccs4)nc(OC[C@@H]4CCCN4C)nc3c2F)c1C(F)(F)F (atropisomer, axis not shown; (M)) [Example 49, (2Z)-N-[(1R,4R,7R)-2-[(7M)-7-[6-amino-4-methyl-3-(trifluoromethyl)pyridin-2-yl]-6-chloro-8-fluoro-2-{[(2S)-1-methylpyrrolidin-2-yl]methoxy}quinazolin-4-yl]-2-azabicyclo[2.2.1]heptan-7-yl]-2-fluoro-3-(1,3-thiazol-2-yl)prop-2-enamide] | 2.26 |
| Cc1cc(N)nc(-c2c(Cl)cc3c(N4CC5CCC(C4)N5C(=O)/C(F)=C/c4ccccn4)nc(OC[C@@]45CCCN4C[C@H](F)C5)nc3c2F)c1C(F)(F)F [Example 7, (Z)-1-((1R,5S)-3-((7M)-7-(6-amino-4-methyl-3-(trifluoromethyl)pyridin-2-yl)-6-chloro-8-fluoro-2-(((2R,7aS)-2-fluorotetrahydro-1H-pyrrolizin-7a(5H)-yl)methoxy)quinazolin-4-yl)-3,8-diazabicyclo[3.2.1]octan-8-yl)-2-fluoro-3-(pyridin-2-yl)prop-2-en-1-one] | 2 |
| CN1CCC[C@H]1COc1nc(N2C[C@H]3CC[C@@H](C2)N3C(=O)/C(F)=C/c2ccccn2)c2cc(Cl)c(-c3cc(O)cc4ccccc34)c(F)c2n1 [Example 8, (Z)-1-((1R,5S)-3-(6-chloro-8-fluoro-7-(3-hydroxynaphthalen-1-yl)-2-(((S)-1-methylpyrrolidin-2-yl)methoxy)quinazolin-4-yl)-3,8-diazabicyclo[3.2.1]octan-8-yl)-2-fluoro-3-(pyridin-2-yl)prop-2-en-1-one] | 9.6 |
| (Z)-1-(3-((7M)-7-(6-amino-4-methyl-3-(trifluoromethyl)pyridin-2-yl)-6-chloro-8-fluoro-2-(((2R,7aR)-2-fluorotetrahydro-1H-pyrrolizin-7a(5H)-yl)methoxy)quinazolin-4-yl)-3,9-diazabicyclo[3.3.1]nonan-9-yl)-2-fluoro-3-(thiazol-2-yl)prop-2-en-1-one [Example 14] | 2.1 |
| Cc1cc(N)nc(-c2c(Cl)cc3c(N4C[C@]5(NC(=O)/C(F)=C/c6nccs6)CC[C@H]4C5)nc(OC[C@@H]4CCCN4C)nc3c2F)c1C(F)(F)F (atropisomer, axis not shown; (M)) [Example 48, (2Z)-N-[(1S,4S)-2-[(7M)-7-[6-amino-4-methyl-3-(trifluoromethyl)pyridin-2-yl]-6-chloro-8-fluoro-2-{[(2S)-1-methylpyrrolidin-2-yl]methoxy}quinazolin-4-yl]-2-azabicyclo[2.2.1]heptan-4-yl]-2-fluoro-3-(thiazol-2-yl)prop-2-enamide] | 2.59 |

Same assay, conditions: GMPPNP-loaded KRAS G12C 5 nM, GST-RAF1 RBD 9 nM, values in nM, read-out: KRASG12C RAF Disruption Assay (IC50)

| Molecule | IC50 [µM] |
| --- | --- |
| N#CC[C@H]1CN(c2nc(OC[C@@]34CCCN3C[C@H](F)C4)nc3c(F)c(-c4cc(O)cc5ccccc45)ccc23)CCN1C(=O)/C(F)=C/c1ncccn1 [Example 40, 2-((S)-4-(8-fluoro-2-(((2R,7aS)-2-fluorotetrahydro-1H-pyrrolizin-7a(5H)-yl)methoxy)-7-(3-hydroxynaphthalen-1-yl)quinazolin-4-yl)-1-((Z)-2-fluoro-3-(pyrimidin-2-yl)acryloyl)piperazin-2-yl)acetonitrile] | 0.011 |
| Cc1ccc2[nH]ncc2c1-c1ccc2c(N3CCN(C(=O)/C(F)=C/c4nccs4)[C@@H](CC#N)C3)nc(OC[C@@H]3CCCN3C)nc2c1F [Example 51, 2-((2S)-1-((Z)-2-fluoro-3-(thiazol-2-yl)acryloyl)-4-(8-fluoro-7-(5-methyl-1H-indazol-4-yl)-2-(((S)-1-methylpyrrolidin-2-yl)methoxy)quinazolin-4-yl)piperazin-2-yl)acetonitrile] | 0.16 |
| CN1CCC[C@H]1COc1nc(N2CCN(C(=O)/C(F)=C/c3ncccn3)[C@@H](CC#N)C2)c2ccc(-c3cccc4cccc(Cl)c34)c(F)c2n1 [Example 38, 2-((S)-1-((Z)-2-fluoro-3-(pyrimidin-2-yl)acryloyl)-4-(8-fluoro-7-(8-chloronaphthalen-1-yl)-2-(((S)-1-methylpyrrolidin-2-yl)methoxy)quinazolin-4-yl)piperazin-2-yl)acetonitrile] | 0.13 |
| CN1CCC[C@H]1COc1nc(N2CCN(C(=O)/C(F)=C/c3ccccn3)CC2)c2ccc(-c3cc(O)cc4ccccc34)c(F)c2n1 [Example 28, (S,Z)-2-fluoro-1-(4-(8-fluoro-7-(3-hydroxynaphthalen-1-yl)-2-((1-methylpyrrolidin-2-yl)methoxy)quinazolin-4-yl)piperazin-1-yl)-3-(pyridin-2-yl)prop-2-en-1-one] | 0.35 |
| C#Cc1cccc2cccc(-c3ccc4c(N5CCN(C(=O)/C(F)=C/c6cnccn6)[C@@H](CC#N)C5)nc(OC[C@@]56CCCN5C[C@H](F)C6)nc4c3F)c12 [Example 87, 2-((S)-4-(7-(8-ethynylnaphthalen-1-yl)-8-fluoro-2-(((2R,7aS)-2-fluorotetrahydro-1H-pyrrolizin-7a(5H)-yl)methoxy)quinazolin-4-yl)-1-((Z)-2-fluoro-3-(pyrazin-2-yl)acryloyl)piperazin-2-yl)acetonitrile] | 0.042 |
| C#Cc1c(F)ccc2cc(O)cc(-c3ccc4c(N5C[C@H]6CC[C@@H](C5)N6C(=O)/C(F)=C/c5nccs5)nc(OC[C@@H]5CCCN5C)nc4c3F)c12 [Example 21, (Z)-1-((1R,5S)-3-(7-(8-ethynyl-7-fluoro-3-hydroxynaphthalen-1-yl)-8-fluoro-2-(((S)-1-methylpyrrolidin-2-yl)methoxy)quinazolin-4-yl)-3,8-diazabicyclo[3.2.1]octan-8-yl)-2-fluoro-3-(thiazol-2-yl)prop-2-en-1-one] | 0.4 |
| CCc1cccc2cccc(-c3ccc4c(N5CCN(C(=O)/C(F)=C/c6cnccn6)[C@@H](CC#N)C5)nc(OC[C@@H]5CCCN5C)nc4c3F)c12 [Example 58, 2-((S)-4-(7-(8-ethylnaphthalen-1-yl)-8-fluoro-2-(((S)-1-methylpyrrolidin-2-yl)methoxy)quinazolin-4-yl)-1-((Z)-2-fluoro-3-(pyrazin-2-yl)acryloyl)piperazin-2-yl)acetonitrile] | 2.4 |
| COc1ccc(Cl)cc1-c1ccc2c(N3CCN(C(=O)/C(F)=C/c4cnccn4)[C@@H](CC#N)C3)nc(OC[C@@H]3CCCN3C)nc2c1F [Example 64] | 61 |
| C#Cc1cccc2cccc(-c3ccc4c(N5CCN(C(=O)/C(F)=C/c6nccs6)[C@@H](CC#N)C5)nc(OC[C@@]56CCCN5C[C@H](F)C6)nc4c3F)c12 [Example 86, 2-((S)-4-(7-(8-ethynylnaphthalen-1-yl)-8-fluoro-2-(((2R,7aS)-2-fluorotetrahydro-1H-pyrrolizin-7a(5H)-yl)methoxy)quinazolin-4-yl)-1-((Z)-2-fluoro-3-(thiazol-2-yl)acryloyl)piperazin-2-yl)acetonitrile] | 0.044 |
